Results published in EP0719281B1, “MULTIPLE BRANCH PEPTIDE CONSTRUCTIONS FOR USE AGAINST HIV” (priority 1993, dated 1995).
“Also recorded” adds a separate entry of the source. Bridge positions count the residues as written; N and C are the ends. Square brackets hold non-standard residues; d marks the D form. Ends that are not written are not given here. I, II: the chains in the order shown. βAla = NCCC(=O)O

What was measured:
[1] = tested on: CEM or C8166 cells; conditions: concentrations of 10^-7 to 10^-4M; 15 days
Description: (§1) An MTT assay, a colorimetric cell viability assay using 3-[4,5-Dimethylthiazol-2-yl] 2,5-diphenyltetrazolium bromide, was used to assess the effect of MBPCs on cell viability. CEM or C8166 cells (5x10^4) were cultured continuously (15 days) in the presence of various concentrations of MBPCs in the wells of 96-well microtiter plates in 200 µl final volume of RPMI 1640 medium supplemented with 5% fetal calf serum, 1% glutamine, 1% streptomycin-penicillin (available from Gibco of Irvine, Scotland) in a humidified atmosphere with 5% CO2. Every 3 to 4 days, an MTT assay was performed on 100 µl of cells suspension and MBPC were added to cell culture and the volume completed to 200 µl.

[2] = tested on: 8E5 cells; experiment: Toxicity in the cell fusion test (MTT assay or trypan blue exclusion); conditions: Concentration (M) 5x10^-5
Description: Toxicity was evaluated by either MTT assay (described below) or trypan blue exclusion technique.
as §1

[3] = tested on: RT-deficient HIV-I(IIIB) isolate; experiment: Inhibition of HIV-I induced cell fusion (8E5 cells co-cultivated with PHA stimulated human PBLs); type: cell-based; conditions: for Inhibition of HIV-I induced cell fusion (number of syncytia): after 24 hours
Description: 50 x 10^3 8E5 cells chronically infected with a RT-deficient HIV-I(IIIB) isolate, were co-cultivated with 150 x 10^3 phytohemagglutinin (PHA) stimulated human peripheral blood lymphocytes (PBLs) in the presence of the indicated peptide in 96-well plates. The MBPCs used are described by the peptides attached, and the number thereof, to a core lysine matrix, which is designated MLC. All amino acids used for this experiment were in dextro form.

[4] = tested on: HIV-1(89.6); experiment: Infection of and syncytia formation in human primary macrophages; type: cell-based; conditions: MBPC 5x10^-5M; 10,000 TCID50; 4 days post-infection
Description: Mononuclear cells were isolated from leukophoresis units enriched for monocytes by Ficoll-Hypaque density separation. Macrophages were purified by adherence to plastic in RPMI 1640 supplemented with 10% fetal calf serum and 5% human AB serum. […] After thorough washing, the cells were fed again with medium and analyzed for HIV-1 p24^gag production and syncytia formation 4 days post-infection.

| Molecule | toxicity to cells (MTT assay) [1] | Toxicity [2] | Toxicity ([2]; listed as [RKSIHIGPGRAFYT]4-MLC) | syncytia formation / cell fusion (in words) [3] | Inhibition of HIV-I induced cell fusion (number of syncytia) ([3]; Concentration (M) 5x10^-5) | Inhibition of HIV-I induced cell fusion (number of syncytia) ([3]; Concentration (M) 5 x10^-6) | Inhibition of HIV-I induced cell fusion (number of syncytia) ([3]; Concentration (M) 5x10^-7) | infection of macrophages (in words) [4] |
| --- | --- | --- | --- | --- | --- | --- | --- | --- |
| C[C@H](NC(=O)[C@H](CCCNC(=N)N)NC(=O)CNC(=O)[C@@H]1CCCN1C(=O)CN)C(=O)N[C@@H](Cc1ccccc1)C(=O)NCCCC[C@H](NC(=O)[C@H](Cc1ccccc1)NC(=O)[C@H](C)NC(=O)[C@H](CCCNC(=N)N)NC(=O)CNC(=O)[C@@H]1CCCN1C(=O)CN)C(=O)NCCCC[C@H](NC(=O)[C@H](CCCCNC(=O)[C@H](Cc1ccccc1)NC(=O)[C@H](C)NC(=O)[C@H](CCCNC(=N)N)NC(=O)CNC(=O)[C@@H]1CCCN1C(=O)CN)NC(=O)[C@H](Cc1ccccc1)NC(=O)[C@H](C)NC(=O)[C@H](CCCNC(=N)N)NC(=O)CNC(=O)[C@@H]1CCCN1C(=O)CN)C(=O)NCCCC[C@H](NC(=O)[C@H](CCCCNC(=O)[C@H](CCCCNC(=O)[C@H](Cc1ccccc1)NC(=O)[C@H](C)NC(=O)[C@H](CCCNC(=N)N)NC(=O)CNC(=O)[C@@H]1CCCN1C(=O)CN)NC(=O)[C@H](Cc1ccccc1)NC(=O)[C@H](C)NC(=O)[C@H](CCCNC(=N)N)NC(=O)CNC(=O)[C@@H]1CCCN1C(=O)CN)NC(=O)[C@H](CCCCNC(=O)[C@H](Cc1ccccc1)NC(=O)[C@H](C)NC(=O)[C@H](CCCNC(=N)N)NC(=O)CNC(=O)[C@@H]1CCCN1C(=O)CN)NC(=O)[C@H](Cc1ccccc1)NC(=O)[C@H](C)NC(=O)[C@H](CCCNC(=N)N)NC(=O)CNC(=O)[C@@H]1CCCN1C(=O)CN)C(=O)NCCC(=O)O [MBPC.3, (GPGRAF)8-(K)4-(K)2-K-βA-OH] | not toxic | – | – | – | – | – | – | – |
| C[C@H](NC(=O)[C@@H](CCCNC(=N)N)NC(=O)CNC(=O)[C@@H]1CCCN1C(=O)CN)C(=O)N[C@@H](Cc1ccccc1)C(=O)NCCCC[C@H](NC(=O)[C@H](Cc1ccccc1)NC(=O)[C@H](C)NC(=O)[C@@H](CCCNC(=N)N)NC(=O)CNC(=O)[C@@H]1CCCN1C(=O)CN)C(=O)NCCCC[C@H](NC(=O)[C@H](CCCCNC(=O)[C@H](Cc1ccccc1)NC(=O)[C@H](C)NC(=O)[C@@H](CCCNC(=N)N)NC(=O)CNC(=O)[C@@H]1CCCN1C(=O)CN)NC(=O)[C@H](Cc1ccccc1)NC(=O)[C@H](C)NC(=O)[C@@H](CCCNC(=N)N)NC(=O)CNC(=O)[C@@H]1CCCN1C(=O)CN)C(=O)NCCCC[C@H](NC(=O)[C@H](CCCCNC(=O)[C@H](CCCCNC(=O)[C@H](Cc1ccccc1)NC(=O)[C@H](C)NC(=O)[C@@H](CCCNC(=N)N)NC(=O)CNC(=O)[C@@H]1CCCN1C(=O)CN)NC(=O)[C@H](Cc1ccccc1)NC(=O)[C@H](C)NC(=O)[C@@H](CCCNC(=N)N)NC(=O)CNC(=O)[C@@H]1CCCN1C(=O)CN)NC(=O)[C@H](CCCCNC(=O)[C@H](Cc1ccccc1)NC(=O)[C@H](C)NC(=O)[C@@H](CCCNC(=N)N)NC(=O)CNC(=O)[C@@H]1CCCN1C(=O)CN)NC(=O)[C@H](Cc1ccccc1)NC(=O)[C@H](C)NC(=O)[C@@H](CCCNC(=N)N)NC(=O)CNC(=O)[C@@H]1CCCN1C(=O)CN)C(=O)NCCC(=O)O [[GPG(R)DAF]8-MLC] | – | Toxic | – | – | – | – | – | – |
| I: RKSIHIGPGRAFYTKK[βAla] / II: RKSIHIGPGRAFYTK / III: RKSIHIGPGRAFYT / IV: RKSIHIGPGRAFYT (amide I:15-IV:C, I:16-II:C, II:15-III:C) [MBPC.5] | – | – | some toxicity; also recorded: Toxic | – | – | – | – | – |
| [Ac-GPGRAF]8-MLC | – | – | – | significant loss of activity | - (- indicates the total absence of syncytia in the well) | +++ | +++ | – |
| [GPGRAF]8-MLCD | – | – | – | – | +++ | +++ | +++ | significantly less active than [GPGRAF]8-MLC |
| [GPGRA]8-MLC | – | – | – | did not inhibit cell fusion | +++ | +++ | +++ | – |
| [GPGR]8-MLC | – | – | – | did not inhibit cell fusion | +++ | +++ | +++ | – |
| [IGPGRAF]8-MLC | – | – | – | significant loss of activity | - (- indicates the total absence of syncytia in the well) | ± | +++ | – |
| [RKSIHKGPGRAFYT]4-MLC | – | Toxic | – | – | – | - (- indicates the total absence of syncytia in the well) | +++ | – |
| [RKSIHTGPGRAFYT]4-MLC | – | Toxic | – | – | – | - (- indicates the total absence of syncytia in the well) | +++ | – |
